Values quoted from earlier work, collected in publication PMC10425256, “Antioxidant and Enzyme Inhibitory Potential of Streptomyces sp. G-18 Grown in Various Media” (International Journal of Microbiology, 2023).

Compound | AChE inhibition (AChE) | inhibition against lipase enzymes (lipase enzymes)
CC(C)=CCC/C(C)=C/Cc1ccc(O)c2nc3cccc(O)c3nc12 [Geranylphenazinediol] | low micromolar range | –
CCCCC/C=C\C/C=C\C[C@@H](C[C@@H]1OC(=O)[C@H]1CCCCCC)OC(=O)[C@H](CC(C)C)NC=O [lipstatin] | – | showed inhibition
Cyclipostins | – | showed inhibition
